The values below come from patent US20030017146A1, “Arginine decomposing enzyme therapeutic composition” (priority 1996, published 2003).

“Also recorded” adds a separate entry of the source.

Data set [1] relates to HeLa Cells (human cervical carcinoma). In words: Arginine deprivation of HeLa cells in vitro, survival and recovery (cloning studies). The class given is cell-based. As to the method: Our in vitro work (D. N. Wheatly: Personal communication) with HeLa Cells (human cervical carcinoma) and early passages of human fibroblasts has established limits of survival and recovery after different items of arginine deprivation. […] By 96 hours of deprivation all HeLa cells were dead. In contrast, healthy fibroblasts could be recovered after even 10 days of deprivation.
Further work established that arginine concentration of 1 micro mole per liter had essentially the same effects as total deprivation. At 40 mircomolar, HeLa cycle was already disturbed, and killing of the cells started below 10 mircomolar. Thus our target “killing zone” for HeLa cells is 1 to 10 micromolar concentration of arginine during three to four days of deprivation.

The conditions of data set [2]: cited from earlier work.
The test system of another data set is thrombocytes. The data set is described as follows: Iloprost infusion against loss of thrombocytes limiting duration of dialysis sessions. Format: in vivo, dogs. Particulars: dog, infusion at 0.5 to 1.0 ng/kg/hr, last two sessions. As to the method:
No systemic problems were seen that would indicate serious threats caused by the lack of arginine. As discussed earlier, loss of thrombocytes was the main factor limiting duration of the sessions. In the last two sessions on the last dog we used yet another infusion pump to deliver iloprost (ILOMEDIN), Schering), a stable analog of prostacyclin (at 0.5 to 1.0 ng/kg/hr). […] By deployment of the approaches described earlier (oxygen supply) this problem will certainly be resolved.

The nature of data set [3]: Continuous hemodialysis removal of arginine with insulin/glucose clamp in healthy dogs. Format: in vivo. The note with it: dog plasma, direct infusion of insulin and glucose with dialysis, blood flow 300 to 400 ml/min, single filter. The source says:
We have thus devised an approach combining our technique of extracorporeal blood treatment for removal of arginine (or any number of selected amino acids) with a pharmacological intervention employing an insulin/glucose clamp. As mentioned earlier, insulin is both an inhibitor of muscle protein breakdown (of both lysosomal and proteasomal pathways) and a promoter of protein synthesis. Since the net release of amino acids depends on both of these cellular activities, insulin is an excellent choice.
The upper two curves (dashed lines) are from the two sessions without insulin. Not shown are the concentrations of other amino acids, which could be maintained close to their pre-set levels (determined by their concentrations in the dialyzing fluid).
A detailed description of the experiment performed on one (the first) of the last three dogs is as follows. […]
Concentrations of amino acids in the blood plasma were measured on an amino acid analyzer (Pharmacia, Biochrom 20) using standard procedures of sample preparation. Using a short column and a truncated buffer program, several amino acids (phenylalanine, histidine, 3-methyl-histidine, tryptophan, lysine, and arginine) could be measured in about 30 minutes of analyzer running time. […]

The conditions of data set [4]: cited from earlier work. This is another data set of the same source.
The conditions of data set [5]: pH 7.4; cited from earlier work.

As to `N=C(N)NCCC[C@H](N)C(=O)O` [arginine], in data set [1], the “arginine concentration at which the cell cycle was already disturbed” value is on record as 40 mircomolar, the “arginine concentration below which killing of the cells started” value is “below 10 mircomolar” and the “arginine concentration with essentially the same effects as total deprivation” value turned out to be 1 micro mole per liter.
For the molecule `Cc1ncc(CO)c(CO)c1O.Cl` [pyrodoxine hydrochloride, reference compound], the “plasma concentration of pyridoxal 5'-phosphate reached” value in data set [2] (human plasma, oral supplement of 100 mg/day, normal about 60 nM) is on record as 450 nM.
`Cc1ncc(COP(=O)(O)O)c(C=O)c1O` [pyridoxal 5′-phosphate]: in data set [2] (in circulation), the half life entry is listed as “about 15 minutes”.
For the molecule `CC#CCC(C)[C@H](O)/C=C/[C@@H]1[C@H]2C/C(=C/CCCC(=O)O)C[C@H]2C[C@H]1O` (stereo partly shown) [iloprost], the “prolongation of the sessions” value in the data set with thrombocytes is “slight prolongation only”.
For insulin, the arginine level reached in data set [3] was found to be 1.5 µM.

B1: bADC: biosynthetic arginine decarboxylase of E. coli, tetramer of 296,000 molecular weight requiring pyridoxal 5'-phosphate and magnesium ion (protein, UniProt P21170 1-658, looked up)
Biosynthetic arginine …: MSDDMSMGLPSSAGEHGVLRSMQEVAMSSQEASKMLRTYNIAWWGNNYYDVNELGHISVCPDPDVPEARVDLAQLVKTREAQGQRLPALFCFPQILQHRLRSINAAFKRARESYGYNGDYFLVYPIKVNQHRRVIESLIHSGEPLGLEAGSKAELMAVLAHAGMTRSVIVCNGYKDREYIRLALIGEKMGHKVYLVIEKMSEIAIVLDEAERLNVVPRLGVRARLASQGSGKWQSSGGEKSKFGLAATQVLQLVETLREAGRLDSLQLLHFHLGSQMANIRDIATGVRESARFYVELHKLGVNIQCFDVGGGLGVDYEGTRSQSDCSVNYGLNEYANNIIWAIGDACEENGLPHPTVITESGRAVTAHHTVLVSNIIGVERNEYTVPTAPAEDAPRALQSMWETWQEMHEPGTRRSLREWLHDSQMDLHDIHIGYSSGIFSLQERAWAEQLYLSMCHEVQKQLDPQNRAHRPIIDELQERMADKMYVNFSLFQSMPDAWGIDQLFPVLPLEGLDQVPERRAVLLDITCDSDGAIDHYIDGDGIATTMPMPEYDPENPPMLGFFMVGAYQEILGNMHNLFGDTEAVDVFVFPDGSVEVELSDEGDTVADMLQYVQLDPKTLLTQFRDQVKKTDLDAELQQQFLEEFEAGLYGYTYLEDE
As for B1, in data set [4] (absolute requirement for magnesium ion), the “pH of optimal activity” value is reported as approximately 8. Besides, the “Michaelis constant for pyridoxal 5'-phosphate” value in data set [4] (cofactor) was 0.6 µM. Further, the specific activity in data set [4] (enzyme purified 1,000 fold) is given as 16.4 units/mg. The “magnesium saturation S0.5” value in data set [4] (sigmoidal magnesium saturation curve) is 1.3 mM. For the same molecule, the “Michaelis constant for arginine” value in data set [4] (substrate) was 30 µM.

B2: dADC: inducible (biodegradative) arginine decarboxylase of E. coli, molecular weight 850,000, induced by low pH (protein, UniProt P28629 1-755, looked up)
Biodegradative arginine …: MKVLIVESEFLHQDTWVGNAVERLADALSQQNVTVIKSTSFDDGFAILSSNEAIDCLMFSYQMEHPDEHQNVRQLIGKLHERQQNVPVFLLGDREKALAAMDRDLLELVDEFAWILEDTADFIAGRAVAAMTRYRQQLLPPLFSALMKYSDIHEYSWAAPGHQGGVGFTKTPAGRFYHDYYGENLFRTDMGIERTSLGSLLDHTGAFGESEKYAARVFGADRSWSVVVGTSGSNRTIMQACMTDNDVVVVDRNCHKSIEQGLMLTGAKPVYMVPSRNRYGIIGPIYPQEMQPETLQKKISESPLTKDKAGQKPSYCVVTNCTYDGVCYNAKEAQDLLEKTSDRLHFDEAWYGYARFNPIYADHYAMRGEPGDHNGPTVFATHSTHKLLNALSQASYIHVREGRGAINFSRFNQAYMMHATTSPLYAICASNDVAVSMMDGNSGLSLTQEVIDEAVDFRQAMARLYKEFTADGSWFFKPWNKEVVTDPQTGKTYDFADAPTKLLTTVQDCWVMHPGESWHGFKDIPDNWSMLDPIKVSILAPGMGEDGELEETGVPAALVTAWLGRHGIVPTRTTDFQIMFLFSMGVTRGKWGTLVNTLCSFKRHYDANTPLAQVMPELVEQYPDTYANMGIHDLGDTMFAWLKENNPGARLNEAYSGLPVAEVTPREAYNAIVDNNVELVSIENLPGRIAANSVIPYPPGIPMLLSGENFGDKNSPQVSYLRSLQSWDHHFPGFEHETEGTEIIDGIYHVMCVKA
On to B2, for which the “catalytic activity at physiological pH” value in data set [5] is given as “vanishes; also recorded: near total loss of activity”.
